Experimental data as given in patent US9867836B2, “Lavage and/or infusion using CSA compounds for increasing fertility in a mammal” (priority 2014, dated 2018).

How the values were obtained:
[1] = system: Alpha hemolytic streptococci; test: Sensitivity panel on organism isolated from mare endometrium; type: cell-based; conditions: isolate from endometrium of 16 year old Quarter Horse mare
From the text: (§1) The microscopic findings from the lab were described as mild to moderate diffuse acute superficial […], Grade IIA endometrium. The lab also isolated Escherichia coli and Alpha-hemolytic streptococci. The sensitivity panel yielded the results in Table 1.

Escherichia coli = test: as above; type: cell-based; conditions: isolate from endometrium of 16 year old Quarter Horse mare
From the text: as §1

Molecule | Sensitivity Panel, Alpha hemolytic streptococci organism isolated [1] | Sensitivity Panel, Escherichia coli Organism Isolated (Escherichia coli)
NCC[C@H](O)C(=O)N[C@@H]1C[C@H](N)[C@@H](O[C@H]2O[C@H](CN)[C@@H](O)[C@H](O)[C@H]2O)[C@H](O)[C@H]1O[C@H]1O[C@H](CO)[C@@H](O)[C@H](N)[C@H]1O [Amikacin] | Resistant | Sensitive
CC1(C)S[C@@H]2[C@H](NC(=O)[C@H](N)c3ccccc3)C(=O)N2[C@H]1C(=O)O [Ampicillin] | Sensitive | Intermediate
Cc1nnc(SCC2=C(C(=O)O)N3C(=O)[C@@H](NC(=O)Cn4cnnn4)[C@H]3SC2)s1 [Cefazolin] | Sensitive | Sensitive
CO/N=C(\C(=O)N[C@@H]1C(=O)N2C(C(=O)O)=C(CSC(=O)c3ccco3)CS[C@H]12)c1csc(N)n1 [Ceftiofur] | Sensitive | Sensitive
CCN1CCN(c2cc3c(cc2F)c(=O)c(C(=O)O)cn3C2CC2)CC1 [Enrofloxacin] | Sensitive | Sensitive
CC[C@H]1OC(=O)[C@H](C)[C@@H](O[C@H]2C[C@@](C)(OC)[C@@H](O)[C@H](C)O2)[C@H](C)[C@@H](O[C@@H]2O[C@H](C)C[C@H](N(C)C)[C@H]2O)[C@](C)(O)C[C@@H](C)C(=O)[C@H](C)[C@@H](O)[C@]1(C)O [Erythromycin] | Sensitive | –
CS(=O)(=O)c1ccc([C@@H](O)[C@@H](CF)NC(=O)C(Cl)Cl)cc1 [Florfenicol] | – | Sensitive
CO[C@H]1/C=C/O[C@@]2(C)Oc3c(C)c(O)c4c(O)c(c(/C=N/N5CCN(C)CC5)c(O)c4c3C2=O)NC(=O)/C(C)=C\C=C\[C@H](C)[C@H](O)[C@@H](C)[C@@H](O)[C@@H](C)[C@H](OC(C)=O)[C@@H]1C [Rifampin] | Sensitive | –
CC1(C)S[C@@H]2[C@H](NC(=O)[C@H](C(=O)O)c3ccsc3)C(=O)N2[C@H]1C(=O)O [Ticarcillin] | Sensitive | Sensitive
Gentamicin | Resistant | Sensitive
TMP/Sulfa | Sensitive | Resistant
Trimmicosin | – | Intermediate
